The values that follow come from paper PMC7220906, “Target-responsive vasoactive probes for ultrasensitive molecular imaging” (Nature Communications, 2020).

The structures appear in SMILES notation. Like-named read-outs stand apart in the source and are kept apart here. Residues, ends and D or L forms follow the SMILES beside them. *: point of attachment. Biotin = O=C1N[C@H]2[C@H](CS[C@H]2CCCCC(=O)*)N1; X2 = O=C(CCN1C(=O)CC(*)C1=O)NCCc1ccc(O)c(O)c1; X1 = C[C@@H]1NC(=O)N[C@@H]1CCCCCC(=O)*

One assay has as its target T1, PACAP receptor PAC1 (Homo sapiens, UniProt P41586).
T1 construct: expressed in transfected cells; host or cells: CHO K1 cells stably transduced by lentivirus with PAC1 and the Glo22F cAMP luciferase
T1 sequence (P41586 21-468): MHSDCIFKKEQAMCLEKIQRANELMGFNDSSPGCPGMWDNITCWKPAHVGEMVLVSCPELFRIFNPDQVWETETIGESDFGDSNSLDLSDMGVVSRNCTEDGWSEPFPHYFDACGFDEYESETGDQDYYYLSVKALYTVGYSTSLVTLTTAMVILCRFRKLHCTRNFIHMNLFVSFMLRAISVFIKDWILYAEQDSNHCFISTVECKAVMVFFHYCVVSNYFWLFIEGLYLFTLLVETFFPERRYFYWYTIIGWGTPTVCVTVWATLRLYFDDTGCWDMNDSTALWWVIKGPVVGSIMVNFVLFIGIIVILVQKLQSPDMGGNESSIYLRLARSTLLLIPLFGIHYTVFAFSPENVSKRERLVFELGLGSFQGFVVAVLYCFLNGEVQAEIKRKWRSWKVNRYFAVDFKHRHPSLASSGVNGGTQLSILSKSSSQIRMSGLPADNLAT
In words: PAC1 luminescence (GloSensor cAMP) assay of PACAP derivatives. It is filed as cell-based. As to the method:
(Promega, Madison, WI). We generated a CHO K1 cell line expressing the required cAMP-dependent luciferase and PAC1 receptor. 24 h before the assay, 2500 cells per well were seeded in 100 µl F10 with 10% FBS in white opaque clear-bottom 96-well plates (Costar, Coppell, TX). […] Luminescence was measured for 30 min using a microtiter plate reader and evaluated after the signal reached a plateau (15 min).
Biotin (BT) and desthiobiotin (dBT) were incorporated as lysine sidechain-derivatized monomers in the synthesis; polyethylene glycol (PEG)-linked BT was incorporated as a BT-functionalized glutamine monomer spaced using a linker of four PEG units. […] Further BT-AVATar activation studies were performed using biotinylated bovine serum albumin (BSA, Sigma-Aldrich) containing 100 nM BT or biotinylated cells containing 150 nM BT (preparation see below) as analytes.
Addition of the maleimido functional group was achieved by reacting DA with N-succinimidyl 3-maleimidopropionate in anhydrous dimethylformamide and further purification using HPLC. The resulting functionalized neurotransmitter, DA-Mal, was further characterized by standard methods (Supplementary Methods and Supplementary Figs. 8 and 9). […] Dopamine sensitivity of the DA-AVATar was examined using freshly prepared DA (Sigma-Aldrich) stocks in PBS pH 7.4.

Another assay has as its system streptavidin (SA). More on the design: method as in 2 sources, ref 21 = [21]; PMID 9601024; doi:10.1021/bi9803123; 21. Klumb LA Chu V Stayton PS Energetic roles of hydrogen bonds at the ureido oxygen binding pocket in the streptavidin−biotin complex Biochemistry 1998 37 7657 7663 10.1021/bi9803123 9601024 ||| ref 22 = [22]; PMID 7041971; doi:10.1021/bi00534a024; 22. Hofmann K Titus G Montibeller JA Finn FM Avidin binding of carboxyl-substituted biotin and analogues Biochemistry 1982 21 978 984 10.1021/bi00534a024 7041971. The following applies: cited from earlier work.

[1] abbreviates: CHO K1 cells expressing PAC1 and cAMP-dependent luciferase, no streptavidin, mean ± SD of duplicates, read-out: EC50 for PAC1 receptor activation in the absence of SA.

For the molecule `CC[C@H](C)[C@H](NC(=O)CNC(=O)[C@H](CC(=O)O)NC(=O)[C@H](CO)NC(=O)[C@@H](N)Cc1c[nH]cn1)C(=O)N[C@@H](Cc1ccccc1)C(=O)N[C@H](C(=O)N[C@@H](CC(=O)O)C(=O)N[C@@H](CO)C(=O)N[C@@H](CCCCNC(=O)CCCCC[C@H]1NC(=O)N[C@H]1C)C(=O)N[C@@H](CO)C(=O)N[C@@H](CCCNC(=N)N)C(=O)N[C@@H](Cc1ccc(O)cc1)C(=O)N[C@@H](CCCNC(=N)N)C(=O)N[C@@H](CCCCN)C(=O)N[C@@H](CCC(N)=O)C(=O)N[C@@H](CCSC)C(=O)N[C@@H](C)C(=O)N[C@H](C(=O)N[C@@H](CCCCNC(=O)CCCCC[C@H]1NC(=O)N[C@H]1C)C(=O)N[C@@H](CCCCN)C(=O)N[C@@H](Cc1ccc(O)cc1)C(=O)N[C@@H](CC(C)C)C(=O)N[C@@H](C)C(=O)N[C@@H](C)C(=O)N[C@H](C(=O)N[C@@H](CC(C)C)C(=O)NCC(=O)N[C@@H](CCCCN)C(=O)N[C@@H](CCCNC(=N)N)C(=O)N[C@@H](Cc1ccc(O)cc1)C(=O)N[C@@H](CCCCNC(=O)CCCCC[C@H]1NC(=O)N[C@H]1C)C(=O)N[C@@H](CCC(N)=O)C(=O)N[C@@H](CCCNC(=N)N)C(=O)N[C@H](C(=O)N[C@@H](CCCCN)C(=O)N[C@@H](CC(N)=O)C(=O)N[C@@H](CCCCN)C(N)=O)C(C)C)C(C)C)C(C)C)[C@@H](C)O` [PACAP-10,20,32-dBT] (H-HSDGIFTDSK(X1)SRYRKQMAVK(X1)KYLAAVLGKRYK(X1)QRVKNK-NH2), the EC50 at PACAP receptor PAC1 (setting [1]) was 130 ± 2 pM. Regarding `CC[C@H](C)[C@H](NC(=O)CNC(=O)[C@H](CC(=O)O)NC(=O)[C@H](CO)NC(=O)[C@@H](N)Cc1c[nH]cn1)C(=O)N[C@@H](Cc1ccccc1)C(=O)N[C@H](C(=O)N[C@@H](CC(=O)O)C(=O)N[C@@H](CO)C(=O)N[C@@H](CCCCNC(=O)CCCC[C@@H]1SC[C@@H]2NC(=O)N[C@@H]21)C(=O)N[C@@H](CO)C(=O)N[C@@H](CCCNC(=N)N)C(=O)N[C@@H](Cc1ccc(O)cc1)C(=O)N[C@@H](CCCNC(=N)N)C(=O)N[C@@H](CCCCN)C(=O)N[C@@H](CCC(N)=O)C(=O)N[C@@H](CCSC)C(=O)N[C@@H](C)C(=O)N[C@H](C(=O)N[C@@H](CCCCNC(=O)CCCC[C@@H]1SC[C@@H]2NC(=O)N[C@@H]21)C(=O)N[C@@H](CCCCN)C(=O)N[C@@H](Cc1ccc(O)cc1)C(=O)N[C@@H](CC(C)C)C(=O)N[C@@H](C)C(=O)N[C@@H](C)C(=O)N[C@H](C(=O)N[C@@H](CC(C)C)C(=O)NCC(=O)N[C@@H](CCCCN)C(=O)N[C@@H](CCCNC(=N)N)C(=O)N[C@@H](Cc1ccc(O)cc1)C(=O)N[C@@H](CCCCN)C(=O)N[C@@H](CCC(N)=O)C(=O)N[C@@H](CCCNC(=N)N)C(=O)N[C@H](C(=O)N[C@@H](CCCCN)C(=O)N[C@@H](CC(N)=O)C(=O)N[C@@H](CCCCN)C(N)=O)C(C)C)C(C)C)C(C)C)[C@@H](C)O` [PACAP-10,20-BT] (H-HSDGIFTDSK(Biotin)SRYRKQMAVK(Biotin)KYLAAVLGKRYKQRVKNK-NH2), the concentration for a half-maximal effect (EC50) at PACAP receptor PAC1 (setting [1]) was determined as 61 ± 7 pM. Consider `CC[C@H](C)[C@H](NC(=O)CNC(=O)[C@H](CC(=O)O)NC(=O)[C@H](CO)NC(=O)[C@@H](N)Cc1c[nH]cn1)C(=O)N[C@@H](Cc1ccccc1)C(=O)N[C@H](C(=O)N[C@@H](CC(=O)O)C(=O)N[C@@H](CO)C(=O)N[C@@H](CSC1CC(=O)N(CCC(=O)NCCc2ccc(O)c(O)c2)C1=O)C(=O)N[C@@H](CO)C(=O)N[C@@H](CCCNC(=N)N)C(=O)N[C@@H](Cc1ccc(O)cc1)C(=O)N[C@@H](CCCNC(=N)N)C(=O)N[C@@H](CCCCN)C(=O)N[C@@H](CCC(N)=O)C(=O)N[C@@H](CCSC)C(=O)N[C@@H](C)C(=O)N[C@H](C(=O)N[C@@H](CSC1CC(=O)N(CCC(=O)NCCc2ccc(O)c(O)c2)C1=O)C(=O)N[C@@H](CCCCN)C(=O)N[C@@H](Cc1ccc(O)cc1)C(=O)N[C@@H](CC(C)C)C(=O)N[C@@H](C)C(=O)N[C@@H](C)C(=O)N[C@H](C(=O)N[C@@H](CC(C)C)C(=O)NCC(=O)N[C@@H](CCCCN)C(=O)N[C@@H](CCCNC(=N)N)C(=O)N[C@@H](Cc1ccc(O)cc1)C(=O)N[C@@H](CCCCN)C(=O)N[C@@H](CCC(N)=O)C(=O)N[C@@H](CCCNC(=N)N)C(=O)N[C@H](C(=O)N[C@@H](CCCCN)C(=O)N[C@@H](CC(N)=O)C(=O)N[C@@H](CCCCN)C(N)=O)C(C)C)C(C)C)C(C)C)[C@@H](C)O` (some centres unmarked) [PACAP-10,20-DA] (H-HSDGIFTDSC(X2)SRYRKQMAVC(X2)KYLAAVLGKRYKQRVKNK-NH2), for which, on PACAP receptor PAC1 (DA conjugate, no IgG, SD of duplicates, read-out: EC50 for PAC1 receptor activation), the EC50 came out at 2500 ± 600 pM.

For `O=C(O)CCCC[C@@H]1SC[C@@H]2NC(=O)N[C@@H]21` [biotin], in the assay on streptavidin (SA), the “characteristic dissociation time of SA from biotin” value is given as ~ 7 h. For the molecule `C[C@@H]1NC(=O)N[C@@H]1CCCCCC(=O)O` [desthiobiotin], the “affinity for SA relative to biotin (lower)” value in the assay on streptavidin (SA) was 10,000 fold.
